Reference: patent US20120059036A1, “METHOD FOR REDUCING THROMBOCYTOPENIA AND THROMBOCYTOPENIA-ASSOCIATED MORTALITY” (priority 2008, published 2012)

Legend:
[1] = test system: patients experiencing ST-segment elevation myocardial infarction (STEMI); test: […] Phase III study: clinical outcomes (death, reinfarction, revascularization, stent thrombosis) at 30 days and 8 months; type: in vivo, human; conditions: for probability of death/MI: within eight months after treatment, intent-to-treat population
Procedure: (§1) The inclusion criteria were (1) chest pain for longer than 30 minutes with an electrocardiographic ST-segment elevation of 1 mm or greater in two or more contiguous electrocardiogram leads, or with a new left bundle-branch block, and (2) admission either within 12 hours of symptom onset or between 12 and 24 hours after onset with evidence of continuing ischemia. The exclusion criteria included administration of fibrinolytics in the previous 30 days, major surgery within 15 days, and active bleeding or previous stroke in the last six months. Immediately after eligibility criteria were met and before the visualization of coronary arteries through angiography, the treating physician at each investigational site performed open-label assignments of study treatments via sealed envelopes.
(§2) This type of regimen is described in U.S. Pat. No. 6,770,660. Abciximab was administered in a 0.25 mg/kg bolus, followed by 0.125 μg/kg/min continuous infusion for 12 hours. The administration of both drugs began at first medical contact, before arterial sheath insertion. Heparin was given at 40 to 70 U/kg, targeting an activated clotting time of at least 200 seconds. Patients received aspirin (160-325 mg orally or 250 mg intravenously, followed by 80-125 mg/d orally indefinitely) and clopidogrel (300 mg orally and then 75 mg/d for at least three months).
(§3) A 12-lead electrocardiogram was recorded before the procedure and 90 minutes after the last balloon inflation in the infarct-related artery. Follow-up visits were scheduled at one, four, and eight months.
(§4) The data for all patients with primary end-point events were reviewed by an independent adjudication committee whose members were blinded to treatment assignments. Events adjudication was performed separately by two members, and in case of disagreement, the opinion of the third member was obtained and the final decision taken by consensus. The committee was also responsible for the adjudication of all clinical events according to the Academic Research Consortium.^18
(§5) Discrete data were summarized as frequencies, and comparisons were made with the likelihood-ratio χ^2 test or Fisher exact test. Continuous data were expressed as mean (SD) or median and interquartile range according to their distribution; comparisons were made with a one-way analysis of variance or the Kruskal-Wallis test.

[2] = test system: patients experiencing ST-segment elevation myocardial infarction (STEMI); test: […] primary end point: at least 50% resolution of ST-segment elevation on 12-lead electrocardiogram 90 minutes after PCI; type: in vivo, human; conditions: for percentage of patients achieving at least 50% ST-segment resolution / patients achieving at least 50% ST-segment resolution: intention-to-treat analysis, within 90 minutes following PCI; for patients achieving at least 50% ST-segment resolution: out of 361 patients
Procedure: as §1, §2, §3
Changes in the ST-segment of the electrocardiogram were evaluated cumulatively before and 90 minutes after intervention. ST-segment elevation was measured to the nearest 0.5 mm at 60 milliseconds after the J point by a single experienced cardiologist who was blinded to treatment assignments. […] Quantitative angiographic analyses were performed with a validated edge-detection system (CAAS II; Pie Medical, Maastricht, the Netherlands), and coronary flow was classified according to Thrombolysis in Myocardial Infarction (TIMI) criteria. Angiographic analyses and TIMI grading were performed by one independent cardiologist who was blinded to treatment assignments.
This was based on both intention-to-treat and per-protocol principles and was applied to an exploratory analysis across several prespecified subgroups. The Cochran-Mantel-Haenszel χ^2 test was performed to evaluate possible imbalances of the relative risk among different recruiting centers.

[3] = test system: patients experiencing ST-segment elevation myocardial infarction (STEMI); test: MULTISTRATEGY safety analysis: bleeding, transfusion, thrombocytopenia and thrombocytopenia-associated mortality; conditions: for Major bleeding / Minor bleedng / Moderate thrombocytoperia (<100000 cells/mm^3) / Red blood cells transfusion ≧1 Units / Red blood cells transfusion ≧2 Units / Severe thrombocytoperia (<50000 cells/mm^3): At 30 d, safety analysis
Procedure: as §1, §2, §4, §5

[4] = At 8 mo, number of patients with event
[5] = At 30 d, number of patients with event

## CCCCS(=O)(=O)N[C@@H](Cc1ccc(OCCCCC2CCNCC2)cc1)C(=O)O.Cl.O [Tirofiban Plus Uncoated Stent]
[1]; At 8 mo, Kaplan-Meier estimate
  Clinically driven target-vessel revascularization: (9.1) %
  Composite of death, reinfarction, or target-vessel revascularization: (12.9) %
  Death: (3.8) %
  Death or reinfarction: (6.5) %
  Definite or probable or possible stent thrombosis: (4.3) %
  Definite or probable stent thrombosis: (3.2) %
  Definite stent thrombosis: (2.2) %
  Possible stent thrombosis: (1.6) %
  Reinfarction: (4.3) %
[1]; [4]
  Clinically driven target-vessel revascularization: 17 No.
  Composite of death, reinfarction, or target-vessel revascularization: 24 No.
  Death: 7 No.
  Death or reinfarction: 12 No.
  Definite or probable or possible stent thrombosis: 8 No.
  Definite or probable stent thrombosis: 6 No.
  Definite stent thrombosis: 4 No.
  Possible stent thrombosis: 3 No.
  Reinfarction: 8 No.
[1]; At 30 d, Kaplan-Meier estimate
  Clinically driven target-vessel revascularization: (1.6) %
  Composite of death, reinfarction, or target-vessel revascularization: (3.8) %
  Death: (1.1) %
  Death or reinfarction: (3.8) %
  Definite or probable stent thrombosis: (2.7) %
  Definite stent thrombosis: (1.6) %
  Probable stent thrombosis: (1.1) %
  Reinfarction: (2.7) %
[1]; [5]
  Clinically driven target-vessel revascularization: 3 No.
  Composite of death, reinfarction, or target-vessel revascularization: 7 No.
  Death: 2 No.
  Death or reinfarction: 7 No.
  Definite or probable stent thrombosis: 5 No.
  Definite stent thrombosis: 3 No.
  Probable stent thrombosis: 2 No.
  Reinfarction: 5 No.

## CCCCS(=O)(=O)N[C@@H](Cc1ccc(OCCCCC2CCNCC2)cc1)C(=O)O.Cl [Tirofiban, N-(butylsulfonyl)-O-[4-(4-piperidinyl)butyl]-tyrosine monohydrochloride]
[1]; At 8 mo, Kaplan-Meier estimate
  Clinically driven target-vessel revascularization: (6.2) %
  Composite of death, reinfarction, or target-vessel revascularization: (9.9) %
  Death: (3.0) %
  Death or reinfarction: (5.9) %
  Definite or probable or possible stent thrombosis: (3.8) %
  Definite or probable stent thrombosis: (3.2) %
  Definite stent thrombosis: (2.7) %
  Possible stent thrombosis: (0.8) %
  Reinfarction: (4.3) %
[1]; [4]
  Clinically driven target-vessel revascularization: 23 No.
  Composite of death, reinfarction, or target-vessel revascularization: 37 No.
  Death: 11 No.
  Death or reinfarction: 22 No.
  Definite or probable or possible stent thrombosis: 14 No.
  Definite or probable stent thrombosis: 12 No.
  Definite stent thrombosis: 10 No.
  Possible stent thrombosis: 3 No.
  Reinfarction: 16 No.
[1]; At 30 d, Kaplan-Meier estimate
  Clinically driven target-vessel revascularization: (2.2) %
  Composite of death, reinfarction, or target-vessel revascularization: (4.0) %
  Death: (1.1) %
  Death or reinfarction: (3.8) %
  Definite or probable stent thrombosis: (2.4) %
  Definite stent thrombosis: (1.9) %
  Probable stent thrombosis: (0.5) %
  Reinfarction: (2.7) %
[1]; [5]
  Clinically driven target-vessel revascularization: 8 No.
  Composite of death, reinfarction, or target-vessel revascularization: 15 No.
  Death: 4 No.
  Death or reinfarction: 14 No.
  Definite or probable stent thrombosis: 9 No.
  Definite stent thrombosis: 7 No.
  Probable stent thrombosis: 2 No.
  Reinfarction: 10 No.
[1]; At 30 days
  incidence of MACE: 4.0%
[1]; At eight months
  incidence of MACE: 9.9%
[1]
  probability of death/MI: 5.9%
[2]; consistent across recruiting centers and prespecified subgroups
  recovery from ST-segment elevation after coronary intervention in comparison with abciximab: noninferior
[2]
  percentage of patients achieving at least 50% ST-segment resolution: 85.3%
  patients achieving at least 50% ST-segment resolution: 308 patients

## Abciximab: inhibitor of the glycoprotein (GP) IIb/IIIa receptor complex; comparator drug
[3]
  Major bleeding: (1.6) %
  Minor bleedng: (6.2) %
  Moderate thrombocytoperia (<100000 cells/mm^3): (1.6) %
  Red blood cells transfusion ≧1 Units: (2.2) %
  Red blood cells transfusion ≧2 Units: (2.2) %
  Severe thrombocytoperia (<50000 cells/mm^3): (2.4) %
[3]; number of patients
  Major bleeding: 6 No.
  Minor bleedng: 23 No.
  Moderate thrombocytoperia (<100000 cells/mm^3): 6 No.
  Red blood cells transfusion ≧1 Units: 8 No.
  Red blood cells transfusion ≧2 Units: 8 No.
  Severe thrombocytoperia (<50000 cells/mm^3): 9 No.
[3]; At 30 days
  TIMI major and minor bleeding: 7.8%
  incidence of severe or moderate thrombocytopenia: 4.0%
[3]; HDB tirofiban compared with abciximab, follow-up, FIG. 3
  mortality rates of nonthrombocytopenic patients: virtually identical
[3]; within eight months, FIG. 3
  patients with drug-induced thrombocytopenia who died: 20%
[1]; At 8 mo, Kaplan-Meier estimate
  Clinically driven target-vessel revascularization: (7.3) %
  Composite of death, reinfarction, or target-vessel revascularization: (12.4) %
  Death: (4.0) %
  Death or reinfarction: (7.5) %
  Definite or probable or possible stent thrombosis: (4.3) %
  Definite or probable stent thrombosis: (3.5) %
  Definite stent thrombosis: (2.7) %
  Possible stent thrombosis: (1.1) %
  Reinfarction: (3.5) %
[1]; [4]
  Clinically driven target-vessel revascularization: 27 No.
  Composite of death, reinfarction, or target-vessel revascularization: 46 No.
  Death: 15 No.
  Death or reinfarction: 28 No.
  Definite or probable or possible stent thrombosis: 16 No.
  Definite or probable stent thrombosis: 13 No.
  Definite stent thrombosis: 10 No.
  Possible stent thrombosis: 4 No.
  Reinfarction: 13 No.
[1]; At 30 d, Kaplan-Meier estimate
  Clinically driven target-vessel revascularization: (1.6) %
  Composite of death, reinfarction, or target-vessel revascularization: (4.3) %
  Death: (2.4) %
  Death or reinfarction: (3.8) %
  Definite or probable stent thrombosis: (2.2) %
  Definite stent thrombosis: (1.3) %
  Probable stent thrombosis: (0.8) %
  Reinfarction: (1.3) %
[1]; [5]
  Clinically driven target-vessel revascularization: 6 No.
  Composite of death, reinfarction, or target-vessel revascularization: 16 No.
  Death: 9 No.
  Death or reinfarction: 14 No.
  Definite or probable stent thrombosis: 8 No.
  Definite stent thrombosis: 5 No.
  Probable stent thrombosis: 3 No.
  Reinfarction: 5 No.
[1]; At 30 days
  incidence of MACE: 4.37%
[1]; At eight months
  incidence of MACE: 12.4%
[1]
  probability of death/MI: 7.5%
[2]
  percentage of patients achieving at least 50% ST-segment resolution: 83.6%
  patients achieving at least 50% ST-segment resolution: 302 patients
